{
  "source": "patent US20180064714A1",
  "about": "(Mylan Laboratories Ltd, priority 2015, published 2018)",
  "key": {"[1]": {"test": "Physical and chemical stability on storage, analysed by PXRD for polymorph integrity", "assay_type": "physicochemical", "protocol": "The Cu-anode X-ray tube was operated at 40 kV and 30 mA. The experiments were conducted over the 2θ range of 2.0°-50.0°, 0.030° step size and 0.4 seconds step time.\nThe Cu-anode X-ray tube was operated at 40 kV and 30 mA. The experiments were conducted over the […] of 2.0°-50.0°, 0.030° step size and 0.4 seconds step time.\nAs used herein, a compound or pharmaceutical composition is considered “stable” where the HPLC purity of the compound or premix changes by less than about 1% when stored at 5° C.±3° C. and/or at 25° C./60% relative humidity (RH). In certain embodiments, the “stable” compound or premix is stored at 5° C.±3° C. In other embodiments, the “stable” compound or premix is stored at 25° C./60% relative humidity (RH)."}, "[2]": {"conditions": "cited from earlier work"}},
  "data": [
    {"smiles": "CC[C@H](Nc1ncnc2nc[nH]c12)c1nc2cccc(F)c2c(=O)n1-c1ccccc1", "note": "[Amorphous Idelalisib, 5-fluoro-3-phenyl-2-[(1S)-1-(7H-purin-6-ylamino)propyl]-4(3H)-quinazolinone]", "values": [
      {"measurement": "Initial PXRD analysis", "setting": "[1]; at 5° C. ± 3° C.", "value": "Amorphous"},
      {"measurement": "Initial PXRD analysis", "setting": "[1]; at 25° C./60% RH", "value": "Amorphous"},
      {"measurement": "Initial PXRD analysis", "setting": "[1]; at 40° C./75% RH", "value": "Amorphous"}
    ]},
    {"smiles": "CC[C@H](Nc1ncnc2[nH]cnc12)c1nc2cccc(F)c2c(=O)n1-c1ccccc1", "note": "[Idelalisib, 5-fluoro-3-phenyl-2-[(1S)-1-(7H-purin-6-ylamino)propyl]-4(3H)-quinazolinone]", "values": [
      {"measurement": "Solubility in water", "setting": "[2]", "value": "poorly soluble"}
    ]}
  ]
}
